Data as given in patent US4273782A, “Inhibition of thromboxane synthetase by 3-(1-Imidazolylalkyl) indoles” (Pfizer Inc., priority 1979, dated 1981).
Where a name gives a salt, the structure may show the parent alone.

Tests used:
[1] = target: T1, prostacyclin synthetase (Sus scrofa, UniProt A0A5G2QT35); assay: Prostacyclin (PGI2) synthetase inhibition, pig aorta microsomes, rabbit aorta bioassay; type: biochemical; conditions: test compound pre-incubated with enzyme for 5 minutes, read-out: Molar concentration causing 50% inhibition of prostacyclin synthetase
T1 construct: Pig aorta microsomes; from tissue; host or cells: pig aorta (microsomes)
T1 sequence (A0A5G2QT35 1-497): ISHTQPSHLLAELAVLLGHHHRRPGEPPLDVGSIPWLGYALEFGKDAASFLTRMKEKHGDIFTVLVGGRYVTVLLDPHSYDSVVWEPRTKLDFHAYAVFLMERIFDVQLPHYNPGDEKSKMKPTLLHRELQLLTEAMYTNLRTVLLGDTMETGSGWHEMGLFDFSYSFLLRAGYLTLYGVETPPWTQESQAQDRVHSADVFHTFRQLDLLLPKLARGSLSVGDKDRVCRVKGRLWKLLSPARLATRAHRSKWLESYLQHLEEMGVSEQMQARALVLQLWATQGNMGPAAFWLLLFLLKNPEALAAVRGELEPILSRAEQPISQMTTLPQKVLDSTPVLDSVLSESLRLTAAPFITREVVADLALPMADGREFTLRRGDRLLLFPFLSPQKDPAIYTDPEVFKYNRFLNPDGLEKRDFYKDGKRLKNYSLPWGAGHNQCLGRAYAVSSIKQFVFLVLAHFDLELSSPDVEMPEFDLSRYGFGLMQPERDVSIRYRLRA
Method: The effect of the compounds of the formula (I) on the thromboxane synthetase enzyme, and the prostacyclin synthetase and cyclooxygenase enzymes has been measured by the following in vitro enzyme assays:
2. Prostacyclin (PGI2) Synthetase
Pig aorta microsomes (Nature, 1976, 263, 663) are incubated (30 sec.: 22° C.) with PGH2 produced as in 1) and aliquots bio-assayed as in 1. […] The test compound is then pre-incubated with the enzyme for 5 minutes, and its ability to prevent the decrease in tension is measured.
The results of these tests are shown in the following Table, which gives the molar concentration of each compound which caused a 50% change in the effect of the relevant enzyme on isometric tension, i.e. caused a 50% inhibition of the action of that enzyme.

[2] = target: T2, thromboxane synthetase (Homo sapiens, UniProt P24557); assay: Thromboxane A2 (TxA2) synthetase inhibition, human platelet microsomes, rabbit aorta bioassay; type: biochemical; conditions: test compound pre-incubated with enzyme for 5 minutes, read-out: Molar concentration causing 50% inhibition of thromboxane synthetase
T2 construct: human platelet microsomes; from tissue; host or cells: human blood platelets (microsomes, indomethacin pre-treated)
T2 sequence (P24557 1-533): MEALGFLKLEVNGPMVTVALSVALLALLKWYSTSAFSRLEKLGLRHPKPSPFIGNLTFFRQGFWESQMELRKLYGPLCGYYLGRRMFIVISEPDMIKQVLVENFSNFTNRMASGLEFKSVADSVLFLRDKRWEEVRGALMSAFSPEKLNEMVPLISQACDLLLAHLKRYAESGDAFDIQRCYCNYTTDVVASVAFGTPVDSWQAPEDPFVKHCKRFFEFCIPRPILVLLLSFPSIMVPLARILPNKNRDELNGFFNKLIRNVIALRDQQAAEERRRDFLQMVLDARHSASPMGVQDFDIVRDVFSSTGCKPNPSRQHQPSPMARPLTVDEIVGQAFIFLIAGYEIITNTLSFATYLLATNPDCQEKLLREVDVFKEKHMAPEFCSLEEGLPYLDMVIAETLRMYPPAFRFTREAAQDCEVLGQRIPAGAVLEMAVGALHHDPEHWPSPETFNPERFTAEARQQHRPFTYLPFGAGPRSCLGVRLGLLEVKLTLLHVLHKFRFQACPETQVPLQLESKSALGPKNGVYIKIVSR
Method: 3. Thromboxane A2 (TxA2) Synthetase
Indomethacin pre-treated human platelet microsomes (Science, 1976, 193, 163) are incubated (2 min.: 0° C.) with PGH2 (produced as in 1) and aliquots of the reaction mixture superfused over two rabbit aorta spirals which are separated by a delay coil (2 min.). The latter is required to allow the selective decay of the more unstable thromboxane A2 (Proc. Nat. Acad. Sci., 1975, 72, 2994) thereby enabling the separate measurement of increased isometric tension due to the TxA2 formed and the PGH2 remaining. The test compound is pre-incubated with enzyme for 5 minutes, and its ability to inhibit the thromboxane synthetase enzyme is measured as its reduction of the TxA2 component of the isometric tension.

[3] = test system: cyclo-oxygenase enzyme; conditions: cited from earlier work
[4] = test system: human blood platelet aggregation; conditions: human blood platelets; cited from earlier work
[5] = rabbit; intravenous arachidonic acid; cited from earlier work
[6] = target: T1, prostacyclin synthetase; conditions: pre-incubation of the enzyme; cited from earlier work
[7] = test system: aggregation of platelets; conditions: rat, abdominal aorta; cited from earlier work

Compound | IC50 [1] [nM] | IC50 [2] [nM] | further results
O=C(O)CCn1cc(Cn2ccnc2)c2cc(Br)ccc21 [Example 20, 5-bromo-1-(2-carboxyethyl)-3-(1-imidazolylmethyl)indole] | > 100000 |  | 
O=C(O)c1cccc(Cn2cc(Cn3ccnc3)c3ccccc32)c1 [Example 25, 1-(3-Carboxybenzyl)-3-(1-imidazolylmethyl)indole] | > 100000 | 2.4 | 
N#CCCn1cc(Cn2ccnc2)c2ccccc21 [Example 1, 1-(2-Cyanoethyl)-3-(1-imidazolylmethyl)indole fumarate] | 24000 | 18 | 
CC(C)c1c(Cn2ccnc2)c2ccccc2n1CCC(=O)O [Example 13] | 100000 | 2 | 
CNC(=O)NCCCn1cc(Cn2ccnc2)c2ccccc21 [Example 46, N-Methyl-N'-[3-[3-(imidazol-1-ylmethyl)indol-1-yl]propyl]urea] |  | 2.1 | 
CC(C)c1c(Cn2ccnc2)c2ccccc2n1CCC(N)=O [Example 28, 1-(2-Carbamoylethyl)-2-isopropyl-3-(1-imidazolylmethyl)indole] | 70000 | 6 | 
CC(=O)Oc1ccccc1C(=O)O [aspirin] |  |  | effect on prostacyclin and thromboxane A2 levels [3]: reduce both the prostacyclin and thromboxane A2 levels; inhibition of the cyclo-oxygenase enzyme [3]: inhibit the cyclo-oxygenase enzyme; inhibitory activity in vitro against a variety of aggregating agents [4]: show inhibitory activity in vitro; protection from the lethal effect of arachidonic acid injection [5]: protect the rabbit from the lethal effect of the injection
c1ccc2c(c1)c(Cn1ccnc1)cn2CCc1nnn[nH]1 [Example 42, 1-[2-(5-Tetrazolyl)ethyl]-3-(1-imidazolylmethyl)indole] | 45000 | 0.034 | 
CCOC(=O)c1ccc(Cn2cc(Cn3ccnc3)c3ccccc32)cc1 [Example 7, 1-(4-Ethoxycarbonylbenzyl)-3-(1-imidazolylmethyl)indole hemi-fumarate] | > 100000 | 0.16 | 
O=C(O)c1ccc(Cn2cc(Cn3ccnc3)c3ccccc32)cc1 [Example 24, 1-(4-Carboxybenzyl)-3-(1-imidazolylmethyl)indole] | > 100000 | 0.16 | 
O=C(O)CCn1cc(Cn2ccnc2)c2ccccc21 [Example 11, 1-(2-Carboxyethyl)-3-(1-imidazolylmethyl)indole fumarate monohydrate] | > 100000 | 0.04 | 
15-hydroxy-arachidonic acid |  |  | prevention of the decrease in PGH2-induced tension (selective PGI2 synthetase inhibitor) [6]: prevented completely
N#Cc1ccc(Cn2cc(Cn3ccnc3)c3ccccc32)cc1 [Example 4, 1-(4-Cyanobenzyl)-3-(1-imidazolylmethyl)indole] | 2200 | 4.8 | 
CCOC(=O)Cn1cc(Cn2ccnc2)c2ccccc21 [Example 10, 1-Ethoxycarbonylmethyl-3-(1-imidazolylmethyl)indole] | > 100000 | 12 | 
O=S(=O)(NCCCn1cc(Cn2ccnc2)c2ccccc21)c1ccccc1 [Example 48, 1-(3-Benzenesulphonylaminopropyl)-3-(1-imidazolylmethyl)indole] | 100000 | 1 | 
O=C(NCCCn1cc(Cn2ccnc2)c2ccccc21)Nc1ccccc1 [Example 47, N-Phenyl-N'-[3-[3-(imidazol-1-ylmethyl)indol-1-yl]propyl]urea] | 40000 | 5.5 | 
O=C(O)CCn1c(C2CC2)c(Cn2ccnc2)c2ccccc21 [Example 14, 1-carboxyethyl-2-cyclopropyl-3-(1-imidazolylmethyl)indole] | 40000 | 0.037 | 
O=C1C(CC[S+]([O-])c2ccccc2)C(=O)N(c2ccccc2)N1c1ccccc1 (centres unmarked) [sulphinpyrazone] |  |  | inhibitory activity in vitro against a variety of aggregating agents [4]: show inhibitory activity in vitro; protection from the lethal effect of arachidonic acid injection [5]: protect the rabbit from the lethal effect of the injection; prevention of aggregation of platelets in an extra corporeal loop [7]: prevent the aggregation of platelets
O=C(O)Cn1cc(Cn2ccnc2)c2ccccc21 [Example 23, 1-Carboxymethyl-3-(1-imidazolylmethyl)indole] | > 100000 | 0.8 | 
NC(=O)Cn1cc(Cn2ccnc2)c2ccccc21 [Example 27, 1-Carbamoylmethyl-3-(1-imidazolylmethyl)indole] | 100000 | 140 | 
NC(=O)c1ccc(Cn2cc(Cn3ccnc3)c3ccccc32)cc1 [Example 38, 1-(4-Carbamoylbenzyl)-3-(1-imidazolylmethyl)indole] |  | 130 | 
